EP2884284A1, “Dry diagnostic reagent” (priority 2013, dated 2015)

Experiments:
[1] = Disintegration and dissolution time of lyophilisates, adjusted Ph. Eur. 7.4 oral lyophilisates method; assay type: physicochemical; conditions: lyophilisate about 1 mg from 12.5 % (m/V) solution, 300 µL TRIS buffer pH 7.4, about 22°C, no stirring
Protocol: Disintegration of substances described in Examples 5 and 6 were determined according to the method described in the European Pharmacopoeia 7.4 in monograph "tablets" section "oral lyophilisates". The disintegration time is acceptable if the oral lyophilisate disintegrates within 3 minutes in 200mL of "purified water R" at temperatures between 15°C and 25°C. Herein, disintegration is the loss of the overall structure, whereas dissolution means that the compound is completely dissolved.
This method was adjusted for the small volume lyophilisates which were used here (∼10 µL initial solution which corresponds to a lyophilysate mass of about 1 mg). Therefore the lyophilized product was added to 300 µL of TRIS buffer (adjusted pH 7.4 at 22°C) without any additional manipulation, e.g. shaking or stirring. In addition to the disintegration time the time until the whole product was completely dissolved, i.e. no visible particles detectable, has been determined at about 22°C (22.1 - 22.3 °C during the experiment).
. It was not possible to lyophilize pure amorphous calcium lactate due to rapid solidification and partially crystallization of the solution, which contained also 12.5%(m/V) amorphous calcium lactate. Table 9: Disintegration time and dissolution time for substances

[2] = Glass transition of the maximally frozen system Tg' by differential scanning calorimetry; conditions: solutions contained 12.5% (m/V) of the respective amorphous solid
From the text: Further, the temperature Tg' is the glass transition temperature of the maximally frozen system, i.e. the glass transition of the amorphous phase within an ice matrix (from ultrapure water).

[3] = Moisture uptake over saturated K2SO4 solution at about 100% relative humidity; conditions: about 25°C, amorphous except for CaCl2
[4] = Moisture uptake, modified Ph. Eur. 5.11 hygroscopicity method; assay type: physicochemical; conditions: mass increase during 24h storage over saturated ammonium sulfate solution, 25°C, about 100 mg
Protocol: It determines the mass increase (% (m/mo)) during a 24h storage period over a saturated ammonium sulfate solution.

Compound | Disintegration time [1] [s] | Dissolution time (mean ± sdv) [1] [s] | Glass transition of the frozen system (Tg') [2] [°C] | Uptake rate during 3h storage at 99.9 % rel. humidity (sat. K2SO4 sol.) [3] | Ph. Eur. method Hygroscopicity [4]
calcium lacto pantothenate [CLP] | <1 | 8 ± 1 | -23.02 | – | –
calcium lacto gluconate [CLG ME] | <1 | 19 ± 6 | -11.74 | 0.204 ratio compared to CaCl2 | –
CC(O)C(=O)[O-].CC(O)C(=O)[O-].[Ca+2] (centres unmarked) [CL, calcium lactate] | – | – | – | 0.384 ratio compared to CaCl2 | 30.28 %(m/mo
calcium ascorbate lactobionate [CALB] | <1 | 12 ± 1 | -13.28 | – | –
calcium ascorbate [reference compound] | <1 | 11 ± 1 | -24.61 | – | 31.77 %(m/mo
calcium lactobionate pantothenate [CLBP] | <1 | 10 ± 2 | -18.84 | – | –
Calcium lacto ascorbate [CLA] | <1 | 14 ± 3 | -20.18 | – | –
calcium pantothenate [CP, reference compound] | <1 | 6 ± 1 | -25.28 | – | 22.02 %(m/mo
calcium ascorbate gluconate [CAG] | <1 | 11 ± 2 | -15.70 | – | 19.65 %(m/mo
calcium gluconate [CG, reference compound] | <1 | 9 ± 1 | -11.08 | 0.214 ratio compared to CaCl2 | 20.16 %(m/mo
